Paper PMC12305662, “Fragment-Based Development of Small Molecule Inhibitors Targeting Mycobacterium tuberculosis Cholesterol Metabolism” (Journal of Medicinal Chemistry, 2025)

Key:
[1] = test system: several human P450 isoforms (panel: CYP1A, CYP2C19, CYP2C9, CYP2D6, CYP3A4); experiment: in vitro; type: in vitro ADME
Method: As several P450 isoforms were inhibited as concentrations <5 μM, the compound has potential to cause drug–drug interactions and further optimization of the benzylpyridine scaffold to improve CYP125/142 selectivity would be required for in vivo applications.
Table S8. Inhibition of human liver microsomal P450s. Inhibition constants (IC 50 values, µM) of
following substrates: CYP1A-ethoxyresorufin, CYP2C19- mephenytoin, CYP2C9-tolbutamide, CYP2D6-
dextromethorphan, CYP3A4-midazolam/testosterone.

[2] = test system: Mtb/radA reporter (DNA damage response); type: cell-based, Mycobacterium tuberculosis; conditions: 50–0.05 μM, days 1, 2, 4, 7
HepG2 cells = experiment: HepG2 cytotoxicity assay (CellTiter Glo ATP); type: cell-based; conditions: ATP (RLU)
Method: Compounds were tested against HepG2 cells for their ability to inhibit ATP production as a measure of cytotoxicity. HepG2 cells were cultured in DMEM supplemented with 10% (v/v) FBS, Hepes, L-glutamine and glucose or galactose. Compounds were serial diluted in microtiter plates (as described above) and HepG2 cells were added at a final concentration of 20,000 cells per well. Inhibition of ATP levels was noted by adding CellTiter Glo (Promega) reagent at a 1:10 dilution and luminescence was noted after 10 min incubation at room temperature.

## COc1ccc(CNc2ccc(Cc3ccncc3)cc2)cc1 [5m, N-(4-Methoxybenzyl)-4-(pyridin-4-ylmethyl)aniline]
[1]
  IC50: < 5 µM
[2]
  upregulation of radA reporter: did not induce the upregulation
HepG2 cells; galactose-containing media, mean ± SD n = 2
  HepG2 LD50 / IC50, galactose media: 3.2 µM
HepG2 cells; standard (glucose-containing) media
  HepG2 LD50 / IC50, glucose media: > 50 µM
